Tests used:
Format in all cases: physicochemical
[1] = Activating wavelength by UV spectrophotometer (diethylene glycol dimethyl ether); settings: for ACTIVATING WAVELENGTH: Table 3; for Activating Wavelength in Diethylene Glycol Dimethyl Ether: Table 1, approximately 0.5 milligram per milliliter in diethylene glycol dimethyl ether
Procedure: The products of Examples 1, 5, 8, 9, and Comparative Examples 1 and 2 were dissolved in diethylene glycol dimethyl ether. The concentrations of the resulting solutions were approximately 0.5 milligram per milliliter. Each solution was tested in a UV spectrophotometer to determine its activating wavelength. The activating wavelength reported in Table 1 is the wavelength at which activation of the photochromic compound occurs in diethylene glycol dimethyl ether. That value corresponds to the absorption peak in the ultraviolet region that is closest to the visible region or the threshold range, i.e., 390 to 410 nanometers, if there is only one absorption peak in this region. If there is more than one absorption peak, the activating wavelength corresponds most closely to the absorption peak that immediately proceeds the peak of longer wavelength in the ultraviolet region or the threshold range.

[2] = Solar response / loss in response on optical bench with 320 nm and 360 nm filters (Part C); settings: for Δ OD @ 320 nm / Δ OD @ 360 nm: 15 minute exposure; for Δ OD @ 320 nm: 320 nanometer filter; for Δ OD @ 360 nm: 360 nanometer filter; for % LOSS IN RESPONSE: (OD 320 nm - OD 360 nm)/OD 320 nm x 100; for BLEACH RATE T 1/2: polymeric matrix prepared from a diethylene glycol bis(allyl carbonate) composition
Procedure: (§1) The test samples were evaluated for photochromic response rates on an optical bench. The samples were illuminated by a 150 watt Xenon lamp fitted with a copper sulfate bath, a 320 nanometer filter, and a neutral density filter at an intensity of about one sun. A second beam of light provided by a filtered tungsten lamp arranged to pass through the sample area exposed by the UV source was used to monitor changes in transmission of the sample over different wavelength ranges in the visible region of the spectrum. The intensity of the monitoring beam after passing through the sample was measured by means of an IL-1500 radiometer equipped with a silicon detector head and matching filters.
(§2) The Δ OD/Min, which represents the sensitivity of the photochromic compound's response to UV light, was measured using photopic filters on the silicon detector. The response of the filtered detector approximated the luminosity curve. The Δ OD was measured over the first five (5) seconds of UV exposure, then expressed on a per minute basis. The saturation optical density (OD) was taken under identical conditions as the Δ OD/Min, except UV exposure was continued for 20 minutes for the examples in Table 2. The Bleach Rate T 1/2 is the time interval in seconds for the absorbance of the activated form of the naphthopyran in the test polymers to reach one half the highest absorbance at room temperature (72° F., 22.2° C.) after removal of the source of activating light.
The solar response for naphthopyrans of Example 7 and Comparative Examples 3 and 4 was measured using the optical bench described in Part B. The naphthopyrans were imbibed by thermal transfer into test squares of a polymeric matrix prepared from a diethylene glycol bis(allyl carbonate) composition and two optical density measurements were made after 15 minute exposures to a UV source first fitted with a 320 nanometer filter and then fitted with a 360 nanometer filter. The loss in response was calculated by subtracting the optical density obtained with the 360 nanometer filter from the optical density obtained with the 320 nanometer filter and then dividing this figure by the optical density obtained with the 320 nanometer filter and multiplying by 100.
The loss in response measurement, expressed as a percent, simulates the difference between the photochromic response of the compounds exposed to full mid-day sun and to low light conditions, such as early day and late in the day when the lower wavelength components of the UV spectrum are attenuated.

[3] = Photochromic response on optical bench in homopolymer of diethylene glycol bis(allyl carbonate) test squares (Part B); settings: for BLEACH RATE T 1/2: Table 2, room temperature (72° F., 22.2° C.), homopolymer of diethylene glycol bis(allyl carbonate); for Δ OD @ SATURATION: UV exposure 20 minutes; for Δ OD @ SATURATION / Δ OD/Min SENSITIVITY: 320 nanometer filter, homopolymer test squares; for Δ OD/Min SENSITIVITY: first five (5) seconds of UV exposure, per minute basis
Procedure: Each naphthopyran was dissolved into toluene solvent to form a 4 weight percent solution of the compound. A piece of No. 4 Whatman filter paper was saturated with the naphthopyran solution and allowed to air dry. The dried filter paper was placed on one side of the polymer test square, which measured 1/8 inch (0.3 centimeter)×2 inch (5.1 centimeters)×2 inch (5.1 centimeters). A piece of untreated filter paper was placed on the other side of the polymer test square and the resulting sandwich placed between two plates of flat aluminum metal plates. […] The imbibed test squares were washed with acetone after removal from the oven.
as §1
as §2, with “2.” for “2. The Bleach Rate T 1/2 is the time interval in seconds for the absorbance of the activated form of the naphthopyran in the test polymers to reach one half the highest absorbance at room temperature (72° F., 22.2° C.) after removal of the source of activating light.”

ACTIVATING WAVELENGTH [1] [nm]	Δ OD @ 320 nm [2]	Δ OD @ 360 nm [2]	% LOSS IN RESPONSE [2] [%]	BLEACH RATE T 1/2 ([2]; Table 3) [min]	Structure (SMILES)	Activating Wavelength in Diethylene Glycol Dimethyl Ether [1] [nm]	BLEACH RATE T 1/2 [3] [min]	Δ OD @ SATURATION [3]	Δ OD/Min SENSITIVITY [3]	other results
359	0.266	0.249	6	5.93	COc1ccc(C2(c3ccccc3F)C=Cc3c(ccc4cc(OC)ccc34)O2)cc1 (stereo not drawn) [Comparative Example 3, 3-(2-fluorophenyl)-3-(4-methoxyphenyl)-8-methoxy-3H-naphtho[2,1-b]pyran]	–	–	–	–	–
–	–	–	–	–	CCCOC(=O)c1cc2c3c(ccc2cc1O)OC(c1ccccc1)(c1ccccc1)C=C3 [Example 1, 3,3-diphenyl-8-hydroxy-9-carbopropoxy-3H-naphtho[2,1-b]pyran]	408	–	–	–	–
–	–	–	–	–	CCCOC(=O)c1cc2c3c(ccc2cc1OC)OC(c1ccccc1)(c1ccccc1)C=C3 [Example 5, 3,3-diphenyl-8-methoxy-9-carbopropoxy-3H-naphtho[2,1-b]pyran]	382	1.33	0.55	1.4 Δ OD/Min	Sensitivity (in words) ([3]; compared to comparative examples 1 and 2): increased sensitivity as compared to the compounds of comparative examples 1 and 2
384	0.187	0.184	2	3.27	COC(=O)c1cc2c3c(ccc2cc1OC)OC(c1ccc(OC)cc1)(c1ccccc1F)C=C3 (stereo not drawn) [Example 7, 3-(2-fluorophenyl)-3-(4-methoxyphenyl)-8-methoxy-9-carbomethoxy-3H-naphtho[2,1-b]pyran]	–	–	–	–	Bleach Rate T 1/2, i.e., rate of fade (in words) ([2]; Table 3): more acceptable Bleach Rate T 1/2; Reduction in optical density, 360 nm vs 320 nm cutoff filter (in words) ([2]; compared to comparative examples 3 and 4): less reduction in optical density
–	–	–	–	–	COC(=O)c1cc2c3c(ccc2cc1OC(C)=O)OC(c1ccc(OC)cc1)(c1ccc(OC)cc1OC)C=C3 (stereo not drawn) [Example 8, 3-(2,4-dimethoxy-phenyl)-3-(4-methoxyphenyl)-8-acetoxy-9-carbomethoxy-3H-naphtho-[2,1-b]pyran]	376	–	–	–	–
–	–	–	–	–	COc1ccc2c3c(ccc2c1C)OC(c1ccccc1)(c1ccccc1)C=C3 [Example 9, 3,3-diphenyl-7-methyl-8-methoxy-3H-naphtho[2,1-b]pyran]	369	–	–	–	–
–	–	–	–	–	COc1ccc2c3c(ccc2c1)OC(c1ccccc1)(c1ccccc1)C=C3 [compound 1, 3,3-diphenyl-8-methoxy-3H-naphtho [2,1-b]pyran]	359	1.45	0.73	1.25 Δ OD/Min	–
–	–	–	–	–	C1=CC(c2ccccc2)(c2ccccc2)Oc2ccc3ccccc3c21 [compound 2, 3,3-diphenyl-3H-naphtho[2,1-b]pyran]	348	0.75	0.36	0.87 Δ OD/Min	–
348	0.260	0.196	25	5.63	COc1ccc(C2(c3ccc(OC)cc3OC)C=Cc3c(ccc4ccccc34)O2)cc1 (stereo not drawn) [compound 4, 3-(2,4-dimethoxyphenyl)-3-(4-methoxyphenyl)-3H-naphtho[2,1-b]pyran]	–	–	–	–	–
